Measured values as given in patent US8012967B2, “Minor groove binders” (University of Strathclyde, priority 2006, dated 2011).
≈ marks a conversion by molar mass, not a printed value. Like-named read-outs stand apart in the source and are kept apart here.

Tests used:
[1] = tested on: Mycobacter fortuitum (NCTC 10394); assay: MIC, Mycobacter fortuitum; type: cell-based; details: for MIC: read-out: Minimum inhibitory concentrations (MICs), M. fortuitum
Protocol: (§1) The effects of compounds of the invention in relation to inhibiting the growth of various microorganisms was determined using methods known to those skilled in the art, for example in vitro methods as described in J. Med. Chem. 47, 2133-2156 (2004) and in vivo methods as described in J. Med. Microbiol. 46, 208-213 (1997), the disclosures of which documents are hereby incorporated by reference. In particular, minimum inhibitory concentrations (MICs) against microorganisms (e.g. S. Aureus, Streptococcus faecalis, Aspergillus niger, Candida albicans or Mycobacterium fortuitum) for compounds of the invention may be measured using procedures such as those described in A. J. Drummond and […] development of microbiological methods for phytochemical screening” Recent Res. Devel. […] The test wells on each 96 well microtitre plate were initially inoculated with culture medium (100 μL) using Mueller-Hinton Broth for antibacterial assays and Sabouraud Broth for antifungal assays. A solution of each test sample (100 μL) was added to one row of each plate and a series of doubling dilutions made for successive rows. Incubation was at 37° C. for antibacterial assay and 25° C. for antifungal assay. […] From the observed pattern of colour, the MIC was determined. All tests included sterility and growth controls.

[2] = tested on: Staphylococcus aureus Strain 2 (NCTC 6571); assay: MIC, Staphylococcus aureus Strain 2; type: cell-based; details: for MIC: read-out: Minimum inhibitory concentrations (MICs), S. aureus 2
Protocol: as §1

[3] = tested on: Streptococcus faecalis (NCTC 775); assay: MIC, Streptococcus faecalis; type: cell-based; details: for MIC: read-out: Minimum inhibitory concentrations (MICs), St. faecalis
Protocol: as §1

[4] = tested on: Staphylococcus aureus Strain 1 (BSAC04(1)) (Clinical isolate from Glasgow Royal Infirmary); assay: MIC, Staphylococcus aureus Strain 1; type: cell-based; details: for MIC: read-out: Minimum inhibitory concentrations (MICs), S aureus 1
Protocol: The effects of compounds of the invention in relation to inhibiting the growth of various microorganisms was determined using methods known to those skilled in the art, for example in vitro methods as described in J. Med. Chem. 47, 2133-2156 (2004) and in vivo methods as described in J. Med. Microbiol. 46, 208-213 (1997), the disclosures of which documents are hereby incorporated by reference.
(§2) In particular, minimum inhibitory concentrations (MICs) against microorganisms (e.g. S. Aureus, Streptococcus faecalis, Aspergillus niger, Candida albicans or Mycobacterium fortuitum) for compounds of the invention may be measured using procedures such as those described in A. J. Drummond and R. D. Waigh “The development of microbiological methods for phytochemical screening” Recent Res. Devel. Phytochem. 4, 143-152 (2000), the disclosures of which document are hereby incorporated by reference.
(§3) Sample dilutions were typically prepared by dissolving the test sample (2 mg) in sterile water (10 mL) to provide a working concentration of 200 μg/ml. The test wells on each 96 well microtitre plate were initially inoculated with culture medium (100 μL) using Mueller-Hinton Broth for antibacterial assays and Sabouraud Broth for antifungal assays. A solution of each test sample (100 μL) was added to one row of each plate and a series of doubling dilutions made for successive rows. Incubation was at 37° C. for antibacterial assay and 25° C. for antifungal assay. […] From the observed pattern of colour, the MIC was determined. All tests included sterility and growth controls.

[5] = tested on: clinical strains of S. aureus in the Scottish Clinical Isolates Collection; assay: MIC against collected clinical strains of S. aureus (BSAC03/04/05 (1)-(10)); type: cell-based, Staphylococcus aureus
Text: as §2, §3
BSAC03/04/05 (1)-(10) refer to collected clinical strains of S. aureus in the Scottish Clinical Isolates Collection.

[6] = tested on: Candida albicans (NCPF3179); assay: MIC, Candida albicans; type: cell-based; details: for MIC: read-out: Minimum inhibitory concentrations (MICs), C. albicans
Protocol: as §1

[7] = tested on: Aspergillus niger (IMI 1745); assay: MIC, Aspergillus niger; type: cell-based; details: for MIC: read-out: Minimum inhibitory concentrations (MICs), A. niger
Protocol: as §1

DNA = details: background statement, cited from earlier work; for DNA sequence preference: result in words; for Kd: read-out: dissociation constants (binding to DNA)
[8] = value in parentheses, na = not active

COc1ccc(/C=C/c2ccc(C(=O)Nc3cc(C(=O)Nc4cc(C(=O)NCCN5CCOCC5)n(C)c4)n(C)c3)cn2)cc1 [Example 22]
Minimum inhibitory concentrations (MICs), M. fortuitum [1, 8]: 50 µg/mL (≈ 81.7 µM)
MIC ([1]; value outside parentheses): 69 µM
Minimum inhibitory concentrations (MICs), S. aureus 2 [2, 8]: 12.5 µg/mL (≈ 20.4 µM)
MIC ([2]; value outside parentheses): 17.2 µM
Minimum inhibitory concentrations (MICs), St. faecalis [3, 8]: 6.3 µg/mL (≈ 10.3 µM)
MIC ([3]; value outside parentheses): 8.6 µM
Minimum inhibitory concentrations (MICs), S aureus 1 [4, 8]: 0.5 µg/mL (≈ 0.817 µM)
MIC ([4]; value outside parentheses): 0.69 µM
Minimum inhibitory concentrations (MICs) ([5]; S. aureus BSAC culture year 2003 number 1): 0.5 µg/mL (≈ 0.817 µM)
Minimum inhibitory concentrations (MICs) ([5]; S. aureus BSAC culture year 2003 number 2): 4 µg/mL (≈ 6.54 µM)
Minimum inhibitory concentrations (MICs) ([5]; S. aureus BSAC culture year 2003 number 3): 0.5 µg/mL (≈ 0.817 µM)
Minimum inhibitory concentrations (MICs) ([5]; S. aureus BSAC culture year 2003 number 4): 0.5 µg/mL (≈ 0.817 µM)
Minimum inhibitory concentrations (MICs) ([5]; S. aureus BSAC culture year 2003 number 5): 0.5 µg/mL (≈ 0.817 µM)
Minimum inhibitory concentrations (MICs) ([5]; S. aureus BSAC culture year 2003 number 6): 1 µg/mL (≈ 1.63 µM)
Minimum inhibitory concentrations (MICs) ([5]; S. aureus BSAC culture year 2003 number 7): 0.5 µg/mL (≈ 0.817 µM)
Minimum inhibitory concentrations (MICs) ([5]; S. aureus BSAC culture year 2003 number 8): 0.5 µg/mL (≈ 0.817 µM)
Minimum inhibitory concentrations (MICs) ([5]; S. aureus BSAC culture year 2003 number 9): 2 µg/mL (≈ 3.27 µM)
Minimum inhibitory concentrations (MICs) ([5]; S. aureus BSAC culture year 2003 number 10): 0.5 µg/mL (≈ 0.817 µM)
Minimum inhibitory concentrations (MICs) ([5]; S. aureus BSAC culture year 2004 number 1): 0.5 µg/mL (≈ 0.817 µM)
Minimum inhibitory concentrations (MICs) ([5]; S. aureus BSAC culture year 2004 number 2): 4 µg/mL (≈ 6.54 µM)
Minimum inhibitory concentrations (MICs) ([5]; S. aureus BSAC culture year 2004 number 3): 2 µg/mL (≈ 3.27 µM)
Minimum inhibitory concentrations (MICs) ([5]; S. aureus BSAC culture year 2004 number 4): 2 µg/mL (≈ 3.27 µM)
Minimum inhibitory concentrations (MICs) ([5]; S. aureus BSAC culture year 2004 number 5): 0.5 µg/mL (≈ 0.817 µM)
Minimum inhibitory concentrations (MICs) ([5]; S. aureus BSAC culture year 2004 number 6): 0.5 µg/mL (≈ 0.817 µM)
Minimum inhibitory concentrations (MICs) ([5]; S. aureus BSAC culture year 2004 number 7): 1 µg/mL (≈ 1.63 µM)
Minimum inhibitory concentrations (MICs) ([5]; S. aureus BSAC culture year 2004 number 8): 1 µg/mL (≈ 1.63 µM)
Minimum inhibitory concentrations (MICs) ([5]; S. aureus BSAC culture year 2004 number 9): 2 µg/mL (≈ 3.27 µM)
Minimum inhibitory concentrations (MICs) ([5]; S. aureus BSAC culture year 2004 number 10): 1 µg/mL (≈ 1.63 µM)
Minimum inhibitory concentrations (MICs) ([5]; S. aureus BSAC culture year 2005 number 1): 2 µg/mL (≈ 3.27 µM)
Minimum inhibitory concentrations (MICs) ([5]; S. aureus BSAC culture year 2005 number 2): 8 µg/mL (≈ 13.1 µM)
Minimum inhibitory concentrations (MICs) ([5]; S. aureus BSAC culture year 2005 number 3): 2 µg/mL (≈ 3.27 µM)
Minimum inhibitory concentrations (MICs) ([5]; S. aureus BSAC culture year 2005 number 4): 0.5 µg/mL (≈ 0.817 µM)
Minimum inhibitory concentrations (MICs) ([5]; S. aureus BSAC culture year 2005 number 5): 4 µg/mL (≈ 6.54 µM)
Minimum inhibitory concentrations (MICs) ([5]; S. aureus BSAC culture year 2005 number 6): 0.5 µg/mL (≈ 0.817 µM)
Minimum inhibitory concentrations (MICs) ([5]; S. aureus BSAC culture year 2005 number 7): 0.5 µg/mL (≈ 0.817 µM)
Minimum inhibitory concentrations (MICs) ([5]; S. aureus BSAC culture year 2005 number 8): 4 µg/mL (≈ 6.54 µM)
Minimum inhibitory concentrations (MICs) ([5]; S. aureus BSAC culture year 2005 number 9): 2 µg/mL (≈ 3.27 µM)
Minimum inhibitory concentrations (MICs) ([5]; S. aureus BSAC culture year 2005 number 10): 1 µg/mL (≈ 1.63 µM)
microbicidal activity against a number of different strains of Staphylococcus aureus ([5]; result in words): displayed microbicidal activity
Minimum inhibitory concentrations (MICs), C. albicans [6, 8]: 25 µg/mL (≈ 40.9 µM)
MIC ([6]; value outside parentheses): 34 µM
Minimum inhibitory concentrations (MICs), A. niger [7, 8]: 50 µg/mL (≈ 81.7 µM)
MIC ([7]; value outside parentheses): 69 µM

CSc1ccc(/C=C/c2ccc(C(=O)Nc3cc(C(=O)Nc4cc(C(=O)NCCN5CCOCC5)n(C)c4)n(C)c3)cn2)cc1 [Example 25, N-[1-methyl-5-({[1-methyl-5-({[2-(4-morpholinyl)ethyl]amino}carbonyl)-1H-pyrrol-3-yl]amino}carbonyl)-1H-pyrrol-3-yl]-6-{(E)-2-[4-(methylsulfanyl)-phenyl]ethenyl}nicotinamide]
MIC ([1]; Mycolicibacterium fortuitum, NCTC10394, value in parentheses, na = not active): 100 µg/mL
MIC ([1]; Mycolicibacterium fortuitum, NCTC10394, value outside parentheses): 135 µM
MIC ([2]; Staphylococcus aureus, NCTC6571, value in parentheses, na = not active): 50 µg/mL
MIC ([2]; Staphylococcus aureus, NCTC6571, value outside parentheses): 67 µM
MIC ([3]; Enterococcus faecalis, NCTC775, value in parentheses, na = not active): 25 µg/mL
MIC ([3]; Enterococcus faecalis, NCTC775, value outside parentheses): 34 µM
MIC ([4]; Staphylococcus aureus, value in parentheses, na = not active): 0.5 µg/mL
MIC ([4]; Staphylococcus aureus, value outside parentheses): 0.67 µM
MIC ([6]; Candida albicans, NCPF3179, value in parentheses, na = not active): 50 µg/mL
MIC ([6]; Candida albicans, NCPF3179, value outside parentheses): 67 µM
MIC ([7]; Aspergillus niger, value in parentheses, na = not active): 100 µg/mL
MIC ([7]; Aspergillus niger, value outside parentheses): 135 µM

Cn1cc(NC(=O)c2cc(NC(=O)CN=C(N)N)cn2C)cc1C(=O)NCCC(=N)N [Netropsin, netropsin]
DNA sequence preference (DNA): preference for AT-rich regions of DNA
Kd (DNA): ~10 µM

Cn1cc(NC(=O)c2cc(NC(=O)c3cc(NC=O)cn3C)cn2C)cc1C(=O)NCCC(=N)N [distamycin]
DNA sequence preference (DNA): preference for AT-rich regions of DNA
Kd (DNA): ~10 µM
